Assay results: paper PMC5321741, “Arylmethylamino steroids as antiparasitic agents” (Nature Communications, 2017)

What was measured:
[1] = tested on: P. falciparum (strain 3D7); assay: 72 h 3H-hypoxanthine incorporation assay, asexual blood stages; format: cell-based, Plasmodium falciparum; conditions: Plasmodium falciparum, 3D7, 72 h 3H-hypoxanthine incorporation, asexual blood stages; read-out: Antiplasmodial activity IC50 Pf (3D7)
haem = assay: ESI-MS collision-induced dissociation of haem adducts; format: binding; conditions: 50 µM haem and 50 µM substrate; for DV50 (dissociation voltage at 50%) of haem adduct: ESI-CID, 20 V to 400 V; for Bottom plateau (adduct remaining at 400 V): fragmentor voltage 400 V
Method: Compound Molar Adduct DV50 Bottom Dissociation mass [Haem+S] (V) plateau Constant
Supplementary Table 7. ESI-MS-CID data (m/z, calculated DV50 = dissociation voltage at 50% and % bottom plateau) of the [haematin-drug]+ adducts and dissociation constants (KD, µM) of the haematin-drug complexes measured with absorption spectrophotometric titrations.
Conditions: 50 µM haem and 50 µM substrate in H2O/CH3CN (5/95) + 0.1% formic acid.
Stability responses of the haem substrate adduct were obtained via ESI-CID experiments.
Positive mode; fragmentor voltage from 20 V to 400 V with 20 V increments. […]
- 41/120 g), and complete dissolution was achieved using an ultrasonic bath. All solutions were protected from daylight to avoid any photochemical degradation. All the physiochemical measurements were carried out at 25.0(2) °C. […]
Electrospray mass spectrometric measurements stopping point
Electrospray mass spectra of the haem complexes were obtained with an Agilent Technologies 6120 quadrupole equipped with an electrospray (ESI) interface. For

K-562 = assay: antiproliferative activity on K-562 cells; format: cell-based; conditions: Homo sapiens, K562, 72 h
Method: (§1) Compounds were tested for their antiproliferative activity on HUVEC and K-562 cells and for cytotoxicity on HeLa cells using standard protocols. K-562 (DSM ACC 10), HUVEC (ATCC CRL-1730), and HeLa (DSM ACC 57) cells were cultured as described previously. To assay the antiproliferative and cytotoxic effect, procedures were carried out as described before. In brief, for each experiment with K-562 and HeLa ∼10,000 cells were seeded per well of the 96-well microplates. For the cytotoxicity assay, the HeLa cells were preincubated for 48 h without the test substances. Cells were incubated for 72 h at 37 °C in a humidified atmosphere and 5% CO2. Suspension cultures of K-562 in microplates were analysed by an electronic cell analyzer system CASY 1 (SCHÄRFE, Reutlingen, Germany). The monolayer of the HUVEC and HeLa cells were fixed by glutaraldehyde (MERCK) and stained with a 0.05% solution of methylene blue (SERVA). After gently washing, the stain was eluted by 0.2 ml of 0.33 N HCl in the wells. The optical densities were measured at 660 nm in a microplate reader. The calculations of the different values of GI50 and CC50 were performed with the software Magellan (TECAN).

[2] = cytotoxicity on HeLa cells; format: cell-based; conditions: human, HeLa cells
Method: as §1

[3] = tested on: P. berghei GFP ANKA malaria strain; assay: P. berghei mouse model (Peter's test); format: in vivo, Plasmodium berghei in NMRI mice; conditions: for % activity (reduction of parasitaemia): day 4
Method: The animal experiments described here were performed at the Swiss Tropical and Public Health Institute (Swiss TPH, Basel, Switzerland), they were approved by the Swiss Cantonal Authorities (‘Kantonales Veterinäramt Basel Stadt') adhering to local and national regulations of laboratory animal welfare in Switzerland. The best compounds were tested in the murine P. berghei model essentially as described. The infection was initiated at day 0 with the P. berghei GFP ANKA malaria strain (donation from AP Waters and CJ Janse, Leiden University). From donor mice (female NMRI mice, 18–20 grams (about 3 weeks) from Charles River Germany) with ∼30% parasitaemia, heparinized blood was taken and diluted in physiological saline to 10^8 parasitized erythrocytes/ml. An aliquot (0.2 ml) of this suspension was injected intravenously into experimental and control groups of mice (female NMRI mice, 18–20 grams (about 3 weeks) from Charles River Germany). Usually, in untreated control mice parasitaemia rose regularly to ∼30% by day 3 post-infection. Control mice died between days 6 and 7 post infection. In the experiments described here, however, control animals (n=5) were killed on day 4 post infection for ethical reasons.
The steroid compounds were prepared at an appropriate concentration as a solution/suspension in Tween 80/alcohol (7:3, Tween 80 and absolute ethanol, respectively), followed by a 10x dilution in water. […] The route of administration was i.p., p.o., s.c. in a volume of 10 ml kg^−1.
The degree of infection (parasitaemia expressed in % of infected erythrocytes) was determined by FACS analysis on day 4 (96 h post infection). The difference of the mean infection rate of the control group (=100%) to the test group was calculated and expressed as a percent reduction. For example, activity determination with a mean of 2% parasitaemia in treated mice and a mean of 40% parasitaemia in the control animals is calculated as follows: (40−2%)/40% × 100=95% activity. The survival time in days was recorded up to 30 days after infection. A compound was considered curative if the animal survived to day 30 after infection with no detectable parasites (confirmed by light microscopy).

HUVEC = assay: antiproliferative activity on HUVEC cells; format: cell-based; conditions: Homo sapiens, HUVEC, 72 h
Method: as §1

With COc1ccc2c(c1)CCC1C2CC[C@@]2(C)C1CC[C@H]2N (some centres unmarked) [1a] the IC50 [1] was greater than 1 µM, the “DV50 (dissociation voltage at 50%) of haem adduct” value (haem) was 218 V and the “Bottom plateau (adduct remaining at 400 V)” value (haem) was 1.2%.

Molecule COc1ccc2c(c1)CCC1C2CC[C@@]2(C)C1CC[C@H]2/N=C/c1ccccc1O (some centres unmarked) [1b] has an IC50 [1] greater than 2.5 µM.

Molecule COc1ccc2c(c1)CCC1C2CCC2(C)C(NCc3cccc(O)c3)CCC12 (centres unmarked) [1e] has an IC50 [1] of 0.434 µM.

COc1ccc2c(c1)CCC1C2CCC2(C)C(NCc3ccc(O)cc3)CCC12 (centres unmarked) [1g] gave an IC50 [1] of 0.116 µM.

For COc1ccc2c(c1)CCC1C2CCC2(C)C(NCc3ccccc3OC)CCC12 (centres unmarked) [1i], the IC50 [1] was 0.872 µM.

For COc1ccc(CNC2CCC3C4CCc5cc(OC)ccc5C4CCC23C)cc1 (centres unmarked) [1k], the IC50 [1] was 1.01 µM.

With COc1ccc2c(c1)CCC1C2CC[C@@]2(C)C1CC[C@H]2NCc1cc(Cl)ccc1O (some centres unmarked) [1s] the IC50 [1] was 0.011 µM.

In the case of COc1ccc2c(c1)CCC1C2CC[C@@]2(C)C1CC[C@@H]2N (some centres unmarked) [2a], the IC50 [1] is reported as greater than 1 µM, the “DV50 (dissociation voltage at 50%) of haem adduct” value (haem) is reported as 210 V and the “Bottom plateau (adduct remaining at 400 V)” value (haem) is reported as 1.8%.

Molecule COc1ccc2c(c1)CCC1C2CC[C@@]2(C)C1CC[C@@H]2/N=C/c1ccccc1O (some centres unmarked) [2b] has an IC50 [1] greater than 2.5 µM.

With COc1ccc2c(c1)CCC1C2CC[C@@]2(C)C1CC[C@@H]2NCc1ccccc1O (some centres unmarked) [2c] the GI50 (K-562) was 5.1 µM, the CC50 at 72 h [2] was 42.9 µM and the “Mouse survival in days, Average” value ([3]; 3x 10 mg/kg s.c.) was 10 days. For the same molecule, the “% activity (reduction of parasitaemia)” value ([3]; 3x 10 mg/kg s.c.) was 47%, the “Mouse survival in days, Average” value ([3]; 3x 30 mg/kg s.c.) was 14 days and the “% activity (reduction of parasitaemia)” value ([3]; 3x 30 mg/kg s.c.) was 87%. The “Mouse survival in days, Average” value ([3]; 3x 100 mg/kg p.o.) was 16 days, the “% activity (reduction of parasitaemia)” value ([3]; 3x 100 mg/kg p.o.) was 99% and the IC50 [1] was 0.073 µM. For the same molecule, the GI50 (HUVEC) was 10 µM.

For COc1ccc2c(c1)CCC1C2CC[C@@]2(C)C1CC[C@@H]2NCc1cccc(O)c1 (some centres unmarked) [2e], the IC50 [1] was 0.741 µM.

With COc1ccc2c(c1)CCC1C2CC[C@@]2(C)C1CC[C@@H]2NCc1c(O)ccc2ccccc12 (some centres unmarked) [2m] the IC50 [1] was 0.183 µM.

Molecule COc1ccc2c(c1)CCC1C2CC[C@@]2(C)C1CC[C@@H]2/N=C/c1cc2ccccc2cc1O (some centres unmarked) [2n] has an IC50 [1] of 5.54 µM.

Work on CCN(CC)c1ccc(/C=N/[C@H]2CCC3C4CCc5cc(OC)ccc5C4CC[C@@]32C)c(O)c1 (some centres unmarked) [2p] yielded an IC50 [1] greater than 5 µM.

CCN(CC)c1ccc(CN[C@H]2CCC3C4CCc5cc(OC)ccc5C4CC[C@@]32C)c(O)c1 (some centres unmarked) [2q] showed an IC50 [1] of 0.713 µM.

In the case of COc1ccc2c(c1)CCC1C2CC[C@@]2(C)C1CC[C@@H]2NCc1cc(Cl)ccc1O (some centres unmarked) [2s], the IC50 [1] is reported as 0.062 µM.

In the case of COc1ccc2c(c1)CCC1C2CC[C@@]2(C)C1CC[C@@H]2NCc1cc([N+](=O)[O-])ccc1O (some centres unmarked) [2u], the IC50 [1] is reported as 0.114 µM.

With COc1ccc2c(c1)CCC1C2CC[C@]2(C)C[C@H](N)CC12 (some centres unmarked) [3a] the IC50 [1] was greater than 1 µM.

Molecule COc1ccc2c(c1)CCC1C2CC[C@]2(C)C[C@H](NCc3ccccc3O)CC12 (some centres unmarked) [3c] has a GI50 (K-562) of 3.8 µM, a CC50 at 72 h [2] of 20.7 µM and an IC50 [1] of 0.042 µM. It also gave a GI50 (HUVEC) of 4.1 µM.

COc1ccc2c(c1)CCC1C2CC[C@]2(C)C[C@@H](N)CC12 (some centres unmarked) [4a] gave an IC50 [1] greater than 1 µM.

Molecule COc1ccc2c(c1)CCC1C2CC[C@]2(C)C[C@@H](NCc3ccccc3O)CC12 (some centres unmarked) [4c] has a GI50 (K-562) of 2.6 µM, a CC50 at 72 h [2] of 12 µM and an IC50 [1] of 0.063 µM. For the same molecule, the GI50 (HUVEC) was 3.1 µM.

For COc1ccc2c(c1)CCC1C2CC[C@@]2(C)C1C[C@@H](NCc1ccccc1O)[C@H]2O (some centres unmarked) [5c], the GI50 (K-562) was 2 µM, the CC50 at 72 h [2] was 11.3 µM and the IC50 [1] was 0.16 µM. The GI50 (HUVEC) was 2.2 µM.
